Columns and labels:
[1] = system: rat radial bone defect model; assay: Rat radial bone defect model, Micro-CT; format: in vivo; details: phage-coated titanium scaffold seeded with hMSCs; 4 weeks
Description: The titanium alloy scaffolds were rinsed 3 times in distilled water followed by autoclaving. The scaffolds were then coated in poly-L-lysine by soaking in 2.5 ml of poly-L-lysine per 5 scaffolds in a 24-well cell culture plate for 30 minutes. The poly-L-lysine was then discarded, and the scaffolds were allowed to dry in a sterile hood overnight. In a sterile cell culture hood, 2 scaffolds were loaded into the sterile freeze casting holder (sterilized by autoclaving). 2 ml of sterile, filtered phage solution (3×10^13 phages/ml) was pipetted into the casting holder and directly into the pores of the titanium scaffolds. The solution was allowed to incubate at room temperature for 30 minutes so that phages could stick better to the scaffold. The scaffolds and phage solution were then freeze casted in the double-sided freeze casting machine with a temperature drop of 3° C./min on the lower contact point and a constant 0° C. on the upper contact point. The final temperature for the lower contact point was −135° C. The frozen scaffold and solution were then freeze dried overnight. For cell seeding, the scaffold was then soaked overnight in cell medium followed by seeding 3.6×10^4 hMSCs onto the scaffold the next day in new medium. After 1 day of culturing, the scaffolds were implanted into the rat radial bone defect model. […]

hMSCs = assay: Immunofluorescence of osteoblast marker proteins; format: cell-based, human; details: hMSCs on phage films, 26 days, basal media
Excerpt: OPN was detected with the primary antibody for OPN (RbpAB to osteopontin ab8448 from Abcam). The secondary antibody used was Goat Anti-Rabbit IgG H&L (Alexa Fluor 555) (ab150078) from Abcam (red). OCN was detected with the primary antibody for OCN [OC4-30] (ab13418) from Abcam). The secondary antibody used was Goat Anti-Mouse IgG H&L (Dylight 650) preadsorbed from abcam ab96882 (red). COL was detected using a primary antibody for COL (RbpAb to collagen 1 ab34710). The secondary antibody used was Goat Anti-Rabbit IgG H&L (Alexa Fluor 555) (ab150078) from abcam (red). Cell nuclei were stained by DAPI (blue) for all samples, and actin was stained by phalloidin (green).
This procedure can be scaled for any size well plates or petri dish, but the volumes included are for 96-well tissue culture plates. […]
After culturing hMSCs on phage films for 26 days, the cells were fixed with 4% paraformaldehyde (10 min) and permeabilized with 0.2% Triton X-100 (2 min) at room temperature. […] The osteogenic protein markers osteopontin (OPN), osteocalcin (OCN), and collagen type 1A (COL) were detected through immunofluorescence. OPN was detected with the primary antibody for OPN (RbpAB to osteopontin ab8448 from Abcam). […] OCN was detected with the primary antibody for OCN [OC4-30] […] COL was detected using a primary antibody for COL (RbpAb to collagen 1 ab34710). […]

Sequence: VHVPLHRGAVSA (Completely synthesized in the lab - Ph.D.-12 Phage Display Peptide Library Kit (New England Biolabs))
- Healing of bone defect (Micro-CT) [1]: Increased healing was best observed
- Osteocalcin protein expression (immunofluorescence) (hMSCs): slightly greater osteocalcin production
- Osteopontin protein expression (immunofluorescence) (hMSCs): qualitatively higher level of osteopontin protein expression than the other groups and a higher expression than the positive control

From US20210369812A1, “OSTEOINDUCTIVE PEPTIDES, COMPOSITIONS, IMPLANTS, AND METHODS OF USE” (The Board of Regents of the University of Oklahoma, priority 2018, published 2021)
